Experimental data reported in patent publication US5628328A, “Method for measuring muscle mass” (priority 1995, dated 1997).
Like-named read-outs stand apart in the source and are kept apart here.

How the values were obtained:
[1] = cited from earlier work
[2] = cited from earlier work; remark: listed apart in the source
[3] = parameters: species or system human; settings: in vivo
Description: Normal volunteers with no evidence or history of diabetes mellitus or of cardiac, liver, renal or pulmonary diseases were studied. The subjects consisted of 3 males and 1 female, ranging in age from 31 to 37 years, in body weight from 47 to 92 kg, and in body mass index (BMI) from 19.2 to 25.5. The purpose and possible risks of the study were explained to all subjects, and their voluntary written consent was obtained. The study protocol was approved by the Committee for the Protection of Human Subjects of the Institutional Review Board at Vanderbilt University School of Medicine. All studies were performed at the Clinical Research Center (CRC). Subjects were placed on balanced weight-maintenance diets for at least one week before the start of the study. Meat was excluded from the subjects' diets for three days before the study and during the study.
All studies were performed after a 10-12 hour overnight fast. On the morning of the experiment (6.30 to 7.00 hours), an 18-gauge Angiocatheter™ (Benton Dickinson, Sandy, Utah) was placed in a superficial hand vein of the nondominant arm for blood sampling. The hand was heated to 55° C. to ensure complete arterialization (Abumrad, N.N. et al., "Use of a heated superficial hand vein as an alternative site for the measurement of amino acid concentrations and for the study of glucose and alanine kinetics in man," Metabolism (1981) 30:936-940). In addition, a 16-gauge angiocatheter was inserted into the contralateral forearm vein for the infusion of L-3-[methyl-^2 H3 ]-histidine (MSD Isotopes, Montreal, Canada). Finally, another catheter was threaded retrograde into the brachial vein of the dominant arm and used for sampling of the forearm tissue.
Each study was four days in duration. Starting at t=0 (8.00 hours), subjects were administered a bolus infusion of L-3-[methyl^2 H3 ]-histidine (D3 -3-methylhistidine) at 0.13 μmol/kg into the forearm vein of the dominant arm. The infusate was passed through a Millex-GS sterilizing filter (0.22 μm; Millipore Products Divisions, Bedford, Mass.) before the infusion. Blood samples were obtained from the superficial hand vein and from the deep forearm vein at 0, 1, 2, 5, 10, 15, 30, 45, 90, 150, 210, 270, 330, and 720 min. postinjection. During this time, the subjects were required to stay at the Clinical Research Center, although they were allowed to ambulate freely within their rooms. Free access to food and drink was allowed after the 330-min sample. After 720 min, the catheters were removed and the patients were allowed to go home. For the following three days, the subjects returned to the CRC each morning before eating for further blood sampling by percutaneous venous puncture at 1,440, 2,880, and 4,320 min postinjection. Urine was collected over 24 hour periods the day before and for three days after tracer infusion.
Blood was collected in heparinized syringes, transferred to tubes containing Na2 EDTA (15 mg/tube), and centrifuged. The plasma obtained was immediately placed on ice. An aliquot of the plasma was processed for determination of 3-methylhistidine concentration as well as the L-3-[methyl-^2 H3 ]-histidine:3-methylhistidine isotope enrichment. The remainder of the plasma was frozen at -70° C. The urine obtained was processed for the determination of creatinine both as a measure of the completeness of the collection (Pencharz, P. B. et al., "The effect of an energy-restricted diet on the protein metabolism of obese adolescents: nitrogen-balance and whole-body nitrogen turnover," Clin. Sci. (1980) 59:13-18), and for the estimation of lean body mass (Blackburn, G. L. et al., "Nutritional and metabolic assessment of hospitalized patients," J. Parenter. Enteral. Nutr. (1977) 1:11-22). […]

[4] = parameters: species or system cattle; settings: bovine, in vivo
Experimental: A minimal model using 4-5 measurements and one compartment rather than three was evaluated. In the minimal model the three pools of the 3-compartment model were combined to form one homogeneous pool of 3-methylhistidine, characterized by a de novo production into the body pool and one exit from the model. The kinetic data between 720 and 4320 min was used for the analysis; this time frame corresponds to apparent linear steady state portion of the decay curve. The limitation of the 1-compartment model is the lost ability to described the entire metabolism of 3-methylhistidine. Only the rate of proteolysis and a total pool size can be estimated. […] (Rathmacher, J. et al., "The use of compartmental models of 3-methylhistidine flux to evaluate skeletal muscle protein turnover in implanted steers," J. Anim. Sci. (1993) 71:135.) However, in cattle the minimal model estimates of 3-methylhistidine production were 30% higher, but the estimates of 3-methylhistidine production were highly correlated (r=0.93, P 0.0001).

[5] = rabbit; cited from earlier work
[6] = cited from earlier work; remark: listed apart in the source
[7] = adult rat, Millward et al. 1980

Cn1cnc(C[C@H](N)C(=O)O)c1 [3-methylhistidine]
Urinary excretion ([1]; pigs, retained in muscle as balenine): not quantitatively excreted in urine
3-methylhistidine excreted into urine ([1]; swine, of 3-methylhistidine from muscle metabolism): less than 2%
Contribution of skin and intestine to 3-methylhistidine excreted per day in urine ([2]; adult rat, Millward and Bates): 17%
Contribution of gastrointestinal tract to 3-methylhistidine excreted [2, 7]: 10%
Contribution of skeletal muscle to 3-methylhistidine excreted [2, 7]: 25%
Contribution of skin to 3-methylhistidine excreted [2, 7]: 7%
Reutilization for protein synthesis ([2]; no specific tRNA): not reutilized for protein synthesis
Share of total bound 3-methylhistidine in skeletal muscle ([2]; rat organs, Haverberg et al., skin and intestine not assessed): 98%
Urinary excretion ([2]; rat): quantitatively excreted in the urine
Contribution of small intestine to 24-hour urinary excretion ([2]; rats, duodenoileostomy): did not make a significant contribution
3MH Production [3]: 3.1 µmol/kg/day
L0,1 fractional transfer rate [3]: .004 min⁻¹
L1,2 fractional transfer rate [3]: .06 min⁻¹
L2,3 fractional transfer rate [3]: .002 min⁻¹
L3,2 fractional transfer rate [3]: .009 min⁻¹
M1, compartment mass [3]: 603 nmol/kg
M2, compartment mass [3]: 912 nmol/kg
M3, compartment mass [3]: 7938 nmol/kg
Plasma levels of 3-methylhistidine over time [3]: did not change over the four days of the study
R01 mass transfer rate [3]: 2.2 nmol/kg/min
R12 mass transfer rate [3]: 53 nmol/kg/min
R21 mass transfer rate [3]: 51 nmol/kg/min
R23 mass transfer rate [3]: 9.6 nmol/kg/min
R32 mass transfer rate [3]: 7.9 nmol/kg/min
Size of compartment 2 relative to compartment 1 [3]: 1.5 times
Size of compartment 3 relative to compartment 1 [3]: 13 times
Urinary 3MH loss [3]: 100 % of total
3-methylhistidine production, minimal model above 3-compartment model [4]: 30%
Urinary excretion [5]: quantitatively excreted in the urine
3MH Production ([6]; pigs, n=20, from model): 7.2 µmol/kg/day
M1, compartment mass ([6]; pigs, n=20): 1110 nmol/kg
M2, compartment mass ([6]; pigs, n=20): 2857 nmol/kg
M3, compartment mass ([6]; pigs, n=20): 6151 nmol/kg
R03 mass transfer rate ([6]; pigs, n=20): 5.0 nmol/kg/min
R12 mass transfer rate ([6]; pigs, n=20): 247 nmol/kg/min
R21 mass transfer rate ([6]; pigs, n=20): 247 nmol/kg/min
R23 mass transfer rate ([6]; pigs, n=20): 32 nmol/kg/min
R32 mass transfer rate ([6]; pigs, n=20): 37 nmol/kg/min
Urinary excretion of total daily 3-methylhistidine produced ([6]; pigs): 1.5 %/d
L0,3 fractional transfer rate ([6]; swine, number 20): .0009 min⁻¹
L1,2 fractional transfer rate ([6]; swine, number 20): .09 min⁻¹
L2,1 fractional transfer rate ([6]; swine, number 20): .23 min⁻¹
L2,3 fractional transfer rate ([6]; swine, number 20): .006 min⁻¹
L3,2 fractional transfer rate ([6]; swine, number 20): .014 min⁻¹
Urinary 3MH loss ([6]; swine, number 20): 1 % of total
